Source: ChEMBL document CHEMBL1201862, “PubChem BioAssay data set” (2004)
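How tested: cells in 96-well plates exposed to compound for 48 hours at five concentrations. The concentration for 50% growth inhibition is given as GI50.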 Calls of active or inactive are those of the source. Rule as the data show it: active = GI50 up to about 1.1 µM and inactive = higher.

Experiments:
Assay in all cases: growth of human tumour cells (NCI), 48 h
SF-539 = system: SF-539
U-251 = system: U-251
NCI-H23 = system: NCI-H23
HL-60 = system: HL-60
MOLT-4 = system: MOLT-4
MDA-MB-231 = system: MDA-MB-231
CAKI-1 = system: CAKI-1
EKVX = system: EKVX
A549 = system: A549
HCT-116 = system: HCT-116
T47D = system: T47D
SF-268 = system: SF-268
NCI-H226 = system: NCI-H226
HOP-62 = system: HOP-62
SK-MEL-28 = system: SK-MEL-28
UACC-257 = system: UACC-257
786-0 = system: 786-0
SK-MEL-2 = system: SK-MEL-2
OVCAR-8 = system: OVCAR-8
MDA-N = system: MDA-N
Malme-3M = system: Malme-3M
SF-295 = system: SF-295
SW-620 = system: SW-620
SNB-75 = system: SNB-75
ACHN = system: ACHN
RPMI-8226 = system: RPMI-8226
UO-31 = system: UO-31
HCT-15 = system: HCT-15
COLO 205 = system: COLO 205
CCRF-CEM = system: CCRF-CEM
LOX IMVI = system: LOX IMVI
RXF 393 = system: RXF 393
MDA-MB-435 = system: MDA-MB-435
M14 = system: M14
TK-10 = system: TK-10
NCI/ADR-RES = system: NCI/ADR-RES
HT-29 = system: HT-29
OVCAR-4 = system: OVCAR-4
OVCAR-3 = system: OVCAR-3
DU-145 = system: DU-145
SNB-19 = system: SNB-19
IGROV-1 = system: IGROV-1
SK-OV-3 = system: SK-OV-3
MCF7 = system: MCF7
Hs-578T = system: Hs-578T
PC-3 = system: PC-3
OVCAR-5 = system: OVCAR-5
K562 = system: K562
HCC 2998 = system: HCC 2998
SR = system: SR
KM12 = system: KM12
A498 = system: A498
NCI-H522 = system: NCI-H522
BT-549 = system: BT-549
HOP-92 = system: HOP-92
UACC-62 = system: UACC-62
SN12C = system: SN12C
NCI-H460 = system: NCI-H460
SK-MEL-5 = system: SK-MEL-5
DLD-1 = system: DLD-1
DMS-273 = system: DMS-273
DMS-114 = system: DMS-114
LXFL 529 = system: LXFL 529
XF498 = system: XF498
KM-20L2 = system: KM-20L2
M19-MEL = system: M19-MEL

O=C1CSC(=S)N1/N=C/c1ccc(Cl)c([N+](=O)[O-])c1
GI50 (SF-539): 32.8 µM (inactive)
GI50 (U-251): 18.5 µM (inactive)
GI50 (NCI-H23): 17.9 µM (inactive)
GI50 (HL-60): 24.2 µM (inactive)
GI50 (MOLT-4): 31.1 µM (inactive)
GI50 (MDA-MB-231): 21.3 µM (inactive)
GI50 (CAKI-1): 33.7 µM (inactive)
GI50 (EKVX): 27.9 µM (inactive)
GI50 (A549): 46.2 µM (inactive)
GI50 (HCT-116): 23 µM (inactive)
GI50 (T47D): 23 µM (inactive)
GI50 (SF-268): 19.6 µM (inactive)
GI50 (NCI-H226): 36.4 µM (inactive)
GI50 (HOP-62): 30.6 µM (inactive)
GI50 (SK-MEL-28): 27.5 µM (inactive)
GI50 (UACC-257): 23.8 µM (inactive)
GI50 (786-0): 38.6 µM (inactive)
GI50 (SK-MEL-2): 29.8 µM (inactive)
GI50 (OVCAR-8): 32.9 µM (inactive)
GI50 (MDA-N): 22.4 µM (inactive)
GI50 (Malme-3M): 19.1 µM (inactive)
GI50 (SF-295): 24.8 µM (inactive)
GI50 (SW-620): 33.7 µM (inactive)
GI50 (SNB-75): 45 µM (inactive)
GI50 (ACHN): 23.3 µM (inactive)
GI50 (RPMI-8226): 21.5 µM (inactive)
GI50 (UO-31): 27.6 µM (inactive)
GI50 (HCT-15): 20.2 µM
GI50 (COLO 205): 43.7 µM (inactive)
GI50 (CCRF-CEM): 7.35 µM (inactive)
GI50 (LOX IMVI): 22.2 µM (inactive)
GI50 (RXF 393): 33.8 µM (inactive)
GI50 (MDA-MB-435): 20.7 µM (inactive)
GI50 (M14): 18.8 µM (inactive)
GI50 (TK-10): 53.5 µM (inactive)
GI50 (NCI/ADR-RES): 22.6 µM (inactive)
GI50 (HT-29): 39.6 µM (inactive)
GI50 (OVCAR-4): 22.5 µM (inactive)
GI50 (OVCAR-3): 20.1 µM (inactive)
GI50 (DU-145): 36.6 µM (inactive)
GI50 (SNB-19): 22.9 µM (inactive)
GI50 (IGROV-1): 36.7 µM (inactive)
GI50 (SK-OV-3): 36.6 µM (inactive)
GI50 (MCF7): 13.3 µM (inactive)
GI50 (Hs-578T): 37.8 µM (inactive)
GI50 (PC-3): 24.6 µM (inactive)
GI50 (OVCAR-5): > 100 µM (inactive)
GI50 (K562): 38.3 µM (inactive)
GI50 (HCC 2998): 11.9 µM (inactive)
GI50 (SR): 22.5 µM (inactive)
GI50 (KM12): 34.2 µM (inactive)
GI50 (A498): 61 µM (inactive)
GI50 (NCI-H522): 18.3 µM (inactive)
GI50 (BT-549): 19.8 µM (inactive)
GI50 (HOP-92): 27.6 µM (inactive)
GI50 (UACC-62): 25.9 µM (inactive)
GI50 (SN12C): 25.8 µM (inactive)
GI50 (NCI-H460): 41.3 µM (inactive)
GI50 (SK-MEL-5): 53.6 µM (inactive)

ONc1ncnc2[nH]cnc12
GI50 (SF-539): > 100 µM (inactive)
GI50 (U-251): > 100 µM (inactive)
GI50 (DLD-1): > 100 µM (inactive)
GI50 (NCI-H23): > 100 µM (inactive)
GI50 (HL-60): 14.7 µM (inactive)
GI50 (DMS-273): > 100 µM (inactive)
GI50 (MOLT-4): > 100 µM (inactive)
GI50 (CAKI-1): > 100 µM (inactive)
GI50 (A549): > 100 µM (inactive)
GI50 (HCT-116): > 100 µM (inactive)
GI50 (SF-268): > 100 µM (inactive)
GI50 (NCI-H226): > 100 µM (inactive)
GI50 (HOP-62): > 100 µM (inactive)
GI50 (SK-MEL-28): > 100 µM (inactive)
GI50 (UACC-257): > 100 µM (inactive)
GI50 (786-0): > 100 µM (inactive)
GI50 (SK-MEL-2): > 100 µM (inactive)
GI50 (OVCAR-8): > 100 µM (inactive)
GI50 (Malme-3M): > 100 µM (inactive)
GI50 (SF-295): > 100 µM (inactive)
GI50 (SW-620): > 100 µM (inactive)
GI50 (DMS-114): > 100 µM (inactive)
GI50 (SNB-75): > 100 µM (inactive)
GI50 (ACHN): > 100 µM (inactive)
GI50 (RPMI-8226): 58.2 µM (inactive)
GI50 (UO-31): > 100 µM (inactive)
GI50 (HCT-15): > 100 µM
GI50 (COLO 205): > 100 µM (inactive)
GI50 (CCRF-CEM): > 100 µM (inactive)
GI50 (M14): > 100 µM (inactive)
GI50 (TK-10): > 100 µM (inactive)
GI50 (HT-29): > 100 µM (inactive)
GI50 (OVCAR-4): > 100 µM (inactive)
GI50 (LXFL 529): > 100 µM (inactive)
GI50 (OVCAR-3): > 100 µM (inactive)
GI50 (SNB-19): > 100 µM (inactive)
GI50 (XF498): > 100 µM (inactive)
GI50 (IGROV-1): > 100 µM (inactive)
GI50 (KM-20L2): > 100 µM (inactive)
GI50 (OVCAR-5): > 100 µM (inactive)
GI50 (K562): 64.4 µM (inactive)
GI50 (HCC 2998): > 100 µM (inactive)
GI50 (SR): > 100 µM (inactive)
GI50 (M19-MEL): > 100 µM (inactive)
GI50 (KM12): > 100 µM (inactive)
GI50 (NCI-H522): > 100 µM (inactive)
GI50 (HOP-92): > 100 µM (inactive)
GI50 (UACC-62): > 100 µM (inactive)
GI50 (NCI-H460): > 100 µM (inactive)
GI50 (SK-MEL-5): > 100 µM (inactive)

COc1cc([C@@H]2c3cc4c(cc3[C@@H](NCCCN(C)C)[C@H]3COC(=O)[C@H]23)OCO4)cc(OC)c1O
GI50 (SF-539): 0.399 µM (active)
GI50 (U-251): 0.223 µM (active)
GI50 (HL-60): 0.0447 µM (active)
GI50 (DMS-273): 0.141 µM (active)
GI50 (MOLT-4): 0.0436 µM (active)
GI50 (EKVX): 0.526 µM (active)
GI50 (Malme-3M): 0.242 µM (active)
GI50 (SF-295): 0.17 µM (active)
GI50 (SW-620): 0.381 µM (active)
GI50 (ACHN): 0.11 µM (active)
GI50 (RPMI-8226): 0.48 µM (active)
GI50 (UO-31): 0.44 µM (active)
GI50 (HCT-15): 0.847 µM
GI50 (CCRF-CEM): 0.0785 µM (active)
GI50 (LOX IMVI): 0.359 µM (active)
GI50 (HT-29): 1.62 µM (inactive)
GI50 (OVCAR-3): 0.729 µM (active)
GI50 (SNB-19): 0.376 µM (active)
GI50 (IGROV-1): 0.337 µM (active)
GI50 (SK-OV-3): 0.248 µM (active)
GI50 (KM-20L2): 0.834 µM (active)
GI50 (OVCAR-5): 1.34 µM (inactive)
GI50 (HCC 2998): 0.51 µM (active)
GI50 (M19-MEL): 0.569 µM (active)
GI50 (KM12): 0.632 µM (active)
GI50 (NCI-H522): 0.525 µM (active)
GI50 (NCI-H460): 0.0252 µM (active)
GI50 (SK-MEL-5): 0.264 µM (active)
